One experiment addresses T1, chondroitin synthase (Caenorhabditis elegans, UniProt Q7Z1Z1).
T1 construct: wild-type (N2) animals were used to prepare worm protein extracts; from tissue; host or cells: whole C. elegans hermaphrodites (young adults), sonicated protein extract
T1 sequence (Q7Z1Z1 1-736): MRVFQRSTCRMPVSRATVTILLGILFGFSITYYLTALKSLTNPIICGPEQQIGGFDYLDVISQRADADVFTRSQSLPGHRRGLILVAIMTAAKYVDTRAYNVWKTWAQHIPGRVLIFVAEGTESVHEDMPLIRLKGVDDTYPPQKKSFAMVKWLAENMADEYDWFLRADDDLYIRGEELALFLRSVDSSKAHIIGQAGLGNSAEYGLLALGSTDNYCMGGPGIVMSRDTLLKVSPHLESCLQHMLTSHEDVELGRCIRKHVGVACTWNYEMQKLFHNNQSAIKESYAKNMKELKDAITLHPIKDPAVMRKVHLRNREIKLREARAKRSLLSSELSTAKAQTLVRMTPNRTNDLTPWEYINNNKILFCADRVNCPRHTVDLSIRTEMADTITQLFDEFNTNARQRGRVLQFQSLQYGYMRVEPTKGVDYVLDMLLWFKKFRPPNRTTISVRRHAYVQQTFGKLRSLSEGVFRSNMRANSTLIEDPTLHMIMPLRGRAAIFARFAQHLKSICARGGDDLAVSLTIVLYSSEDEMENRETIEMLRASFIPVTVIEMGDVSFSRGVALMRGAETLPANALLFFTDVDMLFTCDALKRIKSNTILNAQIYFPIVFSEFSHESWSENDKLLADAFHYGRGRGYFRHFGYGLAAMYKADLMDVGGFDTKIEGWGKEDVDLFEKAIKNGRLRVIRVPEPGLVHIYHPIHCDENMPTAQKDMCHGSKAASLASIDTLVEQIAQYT
The experiment can be described thus: GlcAT (glucuronyl transferase) assay of chondroitin synthase activity in worm protein extracts. The format is biochemical. As for the experimental part: sqv-5(n3611), sqv-5(n3611)/hT2, and wild-type (N2) animals were used to prepare worm protein extracts. These extracts were tested for chondroitin synthase activity using standard methods, for example, in DeAngelis et al., (J. Biol. Chem. 27:24124-24129, 2000).
A desulfated chondroitin acceptor was used for the GalNAcT (N-acetylgalactosamyl transferase) assay. Desulfated and β-glucuronidase-treated chondroitin acceptor was used for the GlcAT (glucuronyl transferase) assay.
The enzymatic activity of SQV-5 was assayed as follows. SQV-5(n3611), sqv-5(n3611)/hT2, and wild-type N2 hermaphrodites were picked as L4 larvae by visual examination of the vulva using a dissecting microscope. The worms staged were allowed to grow for an additional twenty-three to twenty-seven hours at 22° C., re-examined, then transferred to 1.7-ml plastic tubes containing sterile water. The staged worms were washed once with water and twice with 50 mM Tris, pH 7.5, then frozen in a 50 μl volume using liquid nitrogen, and stored at −70° C.
Worm extracts were assayed for GIcAT glucoronosyltransferase activity by combining 1.3×10^5 cpm UDP-^3H-glucuronic acid donor (NEN), 6 μg β-glucuronidase-treated chondroitin acceptor, and 2.7 μg worm extract in a 25 μl reaction volume containing 0.05% Triton X-100, 10 mM MnCl2, and 100 μM ATP, pH 6.5. GalNAcT activity was detected by combining 1.3 to 3×10^5 cpm UDP-^3H-GalNAc donor (NEN), 12 μg chondroitin acceptor, and 6.7 μg worm extract in a 25 μl reaction volume containing 0.05% Triton X-100 and 10 mM MnCl2, pH 6.5. […] Pelleted material was resuspended in water and counted by liquid scintillation.
The chondroitin acceptor used was prepared as follows. […] Uronic acid concentration of both preparations was determined by the Carbazole method (Bitter, et al., Anal. Biochem. 4:330-334, 1962).

For the next experiment, the target named is T2, SQV-4 (Caenorhabditis elegans, UniProt Q19905, T2A).
T2 construct: were used for PCR-amplification of the sqv-4 ORF, and the resulting product was digested with NcoI and XhoI and cloned into pET21d; made in house; host or cells: E. coli BL21 pLysS, pET21d; soluble fraction used without purification
The format is biochemical, C. elegans. The settings on record: UDP-glucose replaced; 100 μM NAD+ and 250 μM nucleotide sugar. The text has this: The sqv-4 coding sequences corresponding to the wild-type, n2827, and n2840 alleles were cloned into the pET21d E. coli expression vector and transformed into BL21 pLysS. The oligonucleotides 5′-[…]-3′ (SEQ ID NO:53) and 5′-[…]-3′ (SEQ ID NO:54) were used to generate R353H n2827 and T4101 n2840 mutations, respectively, by site-directed mutagenesis. The oligonucleotides 5′-[…]-3′ (SEQ ID NO:55) and 5′-[…]-3′ (SEQ ID NO:56) were used for PCR-amplification of the sqv-4 ORF, and the resulting product was digested with NcoI and XhoI and cloned into pET21d. All three proteins have a threonine to alanine mutation in the second amino acid because of the addition of an NcoI site at the 5′ end. SQV-4 expression was induced by incubation with 1 mM IPTG for three to four hours at 37° C. E. coli were pelleted and resuspended in 50 mM Tris-HCl pH 7.5, 1 mM DTT, 1 mM EDTA, 1 mM PMSF, 2 μg/ml pepstatin A, and aprotinin and lysed using a French pressure cell. The soluble fraction was separated from the insoluble inclusion bodies by centrifugation at 12,000 g for 20 minutes.
All assays were performed at room temperature (20 to 22° C.) in 50 mM Tris-HCl, 2 mM dithiothrietol (DTT), pH 8.7. The initial velocity of the reaction was determined from time points during the first 60 seconds after addition of the SQV-4 extract.

T2 sequence (Q19905 whole entry T2A): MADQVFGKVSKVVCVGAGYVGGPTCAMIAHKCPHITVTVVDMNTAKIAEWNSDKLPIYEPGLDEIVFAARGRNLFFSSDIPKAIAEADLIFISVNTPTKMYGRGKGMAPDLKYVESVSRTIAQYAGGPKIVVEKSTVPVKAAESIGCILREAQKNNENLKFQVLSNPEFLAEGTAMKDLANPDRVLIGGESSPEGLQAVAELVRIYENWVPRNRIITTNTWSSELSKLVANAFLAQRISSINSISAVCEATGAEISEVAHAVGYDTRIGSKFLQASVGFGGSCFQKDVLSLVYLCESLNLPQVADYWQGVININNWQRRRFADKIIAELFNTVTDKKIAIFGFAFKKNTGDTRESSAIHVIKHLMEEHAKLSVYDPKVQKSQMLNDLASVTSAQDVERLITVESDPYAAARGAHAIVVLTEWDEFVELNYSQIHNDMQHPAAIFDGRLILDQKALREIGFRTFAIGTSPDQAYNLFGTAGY

On to `O=C(O)[C@H]1O[C@H](OP(=O)(O)OP(=O)(O)OC[C@H]2O[C@@H](n3ccc(=O)[nH]c3=O)[C@H](O)[C@@H]2O)[C@H](O)[C@@H](O)[C@@H]1O` [UDP-glucuronic acid], for which the CPM at chondroitin synthase (extract genotype +/+ (wild-type)) is recorded as 1820 CPM; on chondroitin synthase (extract genotype +/sqv-5 (sqv-5(n3611)/hT2)), 1369 CPM. At SQV-4, the “NAD+ reduction” value was “undetectable”.

The values above are taken from patent US7442501B2, “SQV nucleic acids and polypeptides” (Massachusetts Institute of Technology, priority 2002, dated 2008).
